From ChEMBL document CHEMBL5465560, “Selectivity Literature for EUbOPEN Chemogenomic Library” (2024)

How the values were obtained:
[1] = target: T1, Serine/threonine-protein kinase Chk1 (Homo sapiens) (UniProt O14757); conditions: at 10 µM
T1 sequence (whole entry): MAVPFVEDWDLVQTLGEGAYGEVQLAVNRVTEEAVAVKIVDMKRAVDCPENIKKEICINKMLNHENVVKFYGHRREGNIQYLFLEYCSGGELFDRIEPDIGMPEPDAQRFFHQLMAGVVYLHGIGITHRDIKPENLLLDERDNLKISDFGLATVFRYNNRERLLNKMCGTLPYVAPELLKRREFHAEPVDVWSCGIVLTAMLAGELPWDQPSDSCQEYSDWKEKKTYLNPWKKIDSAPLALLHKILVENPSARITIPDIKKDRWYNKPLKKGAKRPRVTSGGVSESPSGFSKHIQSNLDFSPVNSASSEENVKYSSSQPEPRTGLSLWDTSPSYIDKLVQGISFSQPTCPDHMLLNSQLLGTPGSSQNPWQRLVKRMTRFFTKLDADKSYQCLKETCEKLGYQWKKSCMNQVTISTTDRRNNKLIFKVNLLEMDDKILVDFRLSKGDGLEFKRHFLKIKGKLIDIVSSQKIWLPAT

[2] = target: Receptor tyrosine-protein kinase erbB-3 (Homo sapiens) (UniProt P21860); conditions: at 10 µM
Sequence of Receptor tyrosine-protein kinase erbB-3 (Homo sapiens) (P21860 whole entry): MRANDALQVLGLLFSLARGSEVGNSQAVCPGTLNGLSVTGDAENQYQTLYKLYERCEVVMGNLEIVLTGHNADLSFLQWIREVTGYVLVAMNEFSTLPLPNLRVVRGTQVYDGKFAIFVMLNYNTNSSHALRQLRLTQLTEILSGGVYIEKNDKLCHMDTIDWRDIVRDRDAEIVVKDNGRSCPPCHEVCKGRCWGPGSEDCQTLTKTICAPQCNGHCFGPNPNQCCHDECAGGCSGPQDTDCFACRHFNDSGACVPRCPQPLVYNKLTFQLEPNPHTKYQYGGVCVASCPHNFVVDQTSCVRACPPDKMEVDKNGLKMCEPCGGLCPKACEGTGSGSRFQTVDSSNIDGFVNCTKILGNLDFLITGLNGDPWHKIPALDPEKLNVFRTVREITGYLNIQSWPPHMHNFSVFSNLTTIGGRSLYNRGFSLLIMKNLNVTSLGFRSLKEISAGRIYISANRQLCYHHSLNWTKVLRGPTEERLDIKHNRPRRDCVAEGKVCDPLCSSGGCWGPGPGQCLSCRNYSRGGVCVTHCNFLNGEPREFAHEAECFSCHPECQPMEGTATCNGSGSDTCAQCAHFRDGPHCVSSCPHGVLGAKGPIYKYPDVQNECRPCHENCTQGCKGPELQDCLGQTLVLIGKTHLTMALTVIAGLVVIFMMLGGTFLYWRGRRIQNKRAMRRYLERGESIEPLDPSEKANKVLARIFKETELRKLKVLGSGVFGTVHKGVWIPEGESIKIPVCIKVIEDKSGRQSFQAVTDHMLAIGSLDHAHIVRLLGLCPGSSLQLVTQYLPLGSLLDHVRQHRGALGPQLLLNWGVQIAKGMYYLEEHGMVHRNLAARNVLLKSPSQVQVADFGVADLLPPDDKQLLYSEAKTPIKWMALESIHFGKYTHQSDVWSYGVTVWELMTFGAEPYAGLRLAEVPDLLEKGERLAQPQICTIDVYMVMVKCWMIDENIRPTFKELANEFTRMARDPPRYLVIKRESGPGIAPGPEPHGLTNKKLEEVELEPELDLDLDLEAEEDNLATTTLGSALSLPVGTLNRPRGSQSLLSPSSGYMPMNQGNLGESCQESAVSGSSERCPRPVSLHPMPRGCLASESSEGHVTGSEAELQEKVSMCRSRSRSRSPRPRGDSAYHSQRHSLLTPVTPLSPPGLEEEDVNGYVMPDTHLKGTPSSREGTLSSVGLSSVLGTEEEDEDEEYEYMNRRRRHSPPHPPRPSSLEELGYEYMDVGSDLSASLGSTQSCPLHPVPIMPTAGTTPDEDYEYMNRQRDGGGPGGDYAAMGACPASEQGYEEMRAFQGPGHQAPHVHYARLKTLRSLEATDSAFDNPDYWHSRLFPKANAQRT

[3] = target: Ribosomal protein S6 kinase alpha-2 (Homo sapiens) (UniProt Q15349); assay: Selectivity interaction (Kinase screening (Nanosyn)) EUB0000604a RPS6KA2
Sequence of Ribosomal protein S6 kinase alpha-2 (Homo sapiens) (Q15349 whole entry): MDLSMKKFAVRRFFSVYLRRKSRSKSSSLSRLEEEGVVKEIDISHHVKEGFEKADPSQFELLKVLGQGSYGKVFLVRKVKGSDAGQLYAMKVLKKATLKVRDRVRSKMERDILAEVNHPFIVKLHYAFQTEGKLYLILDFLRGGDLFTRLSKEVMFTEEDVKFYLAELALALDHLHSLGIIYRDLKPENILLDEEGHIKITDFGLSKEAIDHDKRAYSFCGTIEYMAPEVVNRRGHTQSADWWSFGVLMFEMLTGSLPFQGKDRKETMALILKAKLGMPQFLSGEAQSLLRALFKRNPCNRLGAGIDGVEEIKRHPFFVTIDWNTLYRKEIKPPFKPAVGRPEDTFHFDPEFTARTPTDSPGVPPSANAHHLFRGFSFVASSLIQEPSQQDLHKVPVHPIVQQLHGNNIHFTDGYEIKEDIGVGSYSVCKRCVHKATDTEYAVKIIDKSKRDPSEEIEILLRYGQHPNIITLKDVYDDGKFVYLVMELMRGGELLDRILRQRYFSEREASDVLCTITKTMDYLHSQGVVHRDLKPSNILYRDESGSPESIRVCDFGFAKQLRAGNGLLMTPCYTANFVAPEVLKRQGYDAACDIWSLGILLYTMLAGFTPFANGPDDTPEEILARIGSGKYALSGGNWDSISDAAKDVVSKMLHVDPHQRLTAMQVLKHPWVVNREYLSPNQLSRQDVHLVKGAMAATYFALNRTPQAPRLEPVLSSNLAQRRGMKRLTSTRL

[4] = target: Serine/threonine-protein kinase 38 (Homo sapiens) (UniProt Q15208); assay: Selectivity interaction (ActivX KiNativ screen (kinase selectivity in THP-1 cell lysates)) EUB0000639a STK38; format: subcellular; conditions: lysate, at 5 µM
Sequence of Serine/threonine-protein kinase 38 (Homo sapiens) (Q15208 2-465 limits assumed): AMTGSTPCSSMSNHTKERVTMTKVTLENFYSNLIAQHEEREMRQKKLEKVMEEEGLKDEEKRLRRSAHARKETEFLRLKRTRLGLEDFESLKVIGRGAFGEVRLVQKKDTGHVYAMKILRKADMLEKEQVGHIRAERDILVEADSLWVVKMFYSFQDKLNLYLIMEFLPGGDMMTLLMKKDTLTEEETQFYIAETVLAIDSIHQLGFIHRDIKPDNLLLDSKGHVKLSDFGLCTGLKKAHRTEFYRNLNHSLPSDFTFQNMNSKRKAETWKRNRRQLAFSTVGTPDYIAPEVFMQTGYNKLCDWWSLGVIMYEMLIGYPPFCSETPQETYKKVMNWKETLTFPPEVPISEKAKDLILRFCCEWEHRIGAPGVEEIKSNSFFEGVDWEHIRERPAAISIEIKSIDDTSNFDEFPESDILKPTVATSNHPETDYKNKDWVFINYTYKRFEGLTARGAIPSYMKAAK

[5] = target: T2, Serine/threonine-protein kinase TBK1 (Homo sapiens) (UniProt Q9UHD2); assay: Selectivity interaction (ActivX KiNativ screen (kinase selectivity in THP-1 cell lysates)) EUB0000639a TBK1; format: subcellular; conditions: lysate, at 0.04 µM
T2 sequence (whole entry): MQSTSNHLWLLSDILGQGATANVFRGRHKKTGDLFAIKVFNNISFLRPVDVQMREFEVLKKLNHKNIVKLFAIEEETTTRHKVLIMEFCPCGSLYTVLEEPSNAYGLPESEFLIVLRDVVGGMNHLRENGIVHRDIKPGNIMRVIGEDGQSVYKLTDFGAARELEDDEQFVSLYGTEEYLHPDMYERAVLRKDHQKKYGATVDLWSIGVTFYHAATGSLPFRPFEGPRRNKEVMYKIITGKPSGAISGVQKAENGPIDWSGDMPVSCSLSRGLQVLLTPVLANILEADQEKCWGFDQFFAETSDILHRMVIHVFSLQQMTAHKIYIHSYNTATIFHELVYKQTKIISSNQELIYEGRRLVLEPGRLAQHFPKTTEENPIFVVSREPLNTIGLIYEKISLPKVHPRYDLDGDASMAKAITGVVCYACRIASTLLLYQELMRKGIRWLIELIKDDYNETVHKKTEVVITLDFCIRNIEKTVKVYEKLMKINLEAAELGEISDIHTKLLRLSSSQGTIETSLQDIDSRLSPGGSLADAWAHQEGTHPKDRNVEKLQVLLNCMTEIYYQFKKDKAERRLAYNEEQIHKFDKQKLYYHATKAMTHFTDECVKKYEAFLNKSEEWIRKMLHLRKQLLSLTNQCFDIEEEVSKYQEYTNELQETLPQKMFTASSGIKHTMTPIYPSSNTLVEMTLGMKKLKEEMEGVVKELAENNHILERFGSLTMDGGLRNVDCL

[6] = target: T3, Mitogen-activated protein kinase kinase kinase 2 (Homo sapiens) (UniProt Q9Y2U5); assay: Selectivity interaction (ActivX KiNativ screen (kinase selectivity in THP-1 cell lysates)) EUB0000639a MAP3K2; format: subcellular; conditions: lysate, at 0.04 µM
T3 sequence (whole entry): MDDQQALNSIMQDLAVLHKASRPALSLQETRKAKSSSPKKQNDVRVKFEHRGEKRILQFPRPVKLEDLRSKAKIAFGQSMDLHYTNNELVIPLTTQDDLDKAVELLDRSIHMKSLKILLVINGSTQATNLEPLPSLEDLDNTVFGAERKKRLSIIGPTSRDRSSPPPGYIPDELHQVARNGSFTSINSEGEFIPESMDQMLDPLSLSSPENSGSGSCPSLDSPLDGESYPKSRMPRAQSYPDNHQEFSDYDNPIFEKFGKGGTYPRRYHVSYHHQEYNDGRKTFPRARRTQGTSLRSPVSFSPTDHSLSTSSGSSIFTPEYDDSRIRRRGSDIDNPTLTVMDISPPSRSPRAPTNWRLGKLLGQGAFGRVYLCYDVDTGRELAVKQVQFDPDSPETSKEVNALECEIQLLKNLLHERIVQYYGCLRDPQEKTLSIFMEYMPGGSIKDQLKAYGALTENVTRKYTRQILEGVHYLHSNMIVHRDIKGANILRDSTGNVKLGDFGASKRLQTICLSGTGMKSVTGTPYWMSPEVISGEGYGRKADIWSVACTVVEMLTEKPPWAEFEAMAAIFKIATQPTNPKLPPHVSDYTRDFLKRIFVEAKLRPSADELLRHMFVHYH

[7] = target: cAMP-dependent protein kinase catalytic subunit alpha (Homo sapiens, UniProt P17612); assay: Selectivity interaction (Kinase panel (Z-LYTE Assay)) EUB0001632a PRKACA; conditions: at 10 µM
[8] = target: T4, Activin receptor type-1B (Homo sapiens) (UniProt P36896); assay: Selectivity interaction (KinomeScan (DiscoverX)) EUB0000595a ACVR1B; conditions: at 10 µM
T4 sequence (whole entry): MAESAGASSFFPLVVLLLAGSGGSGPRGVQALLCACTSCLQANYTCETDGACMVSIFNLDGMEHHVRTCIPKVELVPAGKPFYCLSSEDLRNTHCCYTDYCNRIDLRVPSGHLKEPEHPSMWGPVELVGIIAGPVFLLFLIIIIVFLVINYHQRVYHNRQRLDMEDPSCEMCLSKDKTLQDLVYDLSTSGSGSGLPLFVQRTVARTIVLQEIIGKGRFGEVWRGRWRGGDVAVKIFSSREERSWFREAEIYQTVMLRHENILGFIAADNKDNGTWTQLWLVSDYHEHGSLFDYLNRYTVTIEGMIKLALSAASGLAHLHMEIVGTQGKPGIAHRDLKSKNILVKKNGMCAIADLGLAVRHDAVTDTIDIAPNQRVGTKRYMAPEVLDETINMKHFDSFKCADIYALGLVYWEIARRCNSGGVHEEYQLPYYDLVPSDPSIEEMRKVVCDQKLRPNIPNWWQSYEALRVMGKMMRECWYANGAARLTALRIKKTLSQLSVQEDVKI

[9] = target: RAC-gamma serine/threonine-protein kinase (Homo sapiens, UniProt Q9Y243); assay: Selectivity interaction (KinomeScan (DiscoverX)) EUB0001079a AKT3; conditions: at 1 µM
Sequence of RAC-gamma serine/threonine-protein kinase (Q9Y243 whole entry): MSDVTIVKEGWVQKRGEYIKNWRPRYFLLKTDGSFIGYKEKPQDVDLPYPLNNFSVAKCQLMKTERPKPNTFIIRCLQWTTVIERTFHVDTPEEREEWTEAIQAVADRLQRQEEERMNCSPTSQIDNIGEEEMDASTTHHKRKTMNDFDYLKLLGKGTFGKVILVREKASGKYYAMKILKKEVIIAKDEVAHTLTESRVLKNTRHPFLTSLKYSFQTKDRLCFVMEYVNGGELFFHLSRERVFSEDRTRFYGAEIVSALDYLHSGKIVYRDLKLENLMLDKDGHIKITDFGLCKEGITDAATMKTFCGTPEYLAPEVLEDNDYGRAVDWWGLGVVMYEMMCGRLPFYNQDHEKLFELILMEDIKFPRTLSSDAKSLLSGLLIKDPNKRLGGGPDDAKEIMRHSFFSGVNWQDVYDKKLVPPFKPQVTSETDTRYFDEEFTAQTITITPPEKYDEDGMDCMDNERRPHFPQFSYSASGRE

[10] = target: Tyrosine-protein kinase ABL1 (Homo sapiens, UniProt P00519); assay: Selectivity interaction (KinomeScan (DiscoverX)) EUB0001079a ABL1; conditions: at 1 µM
Sequence of Tyrosine-protein kinase ABL1 (P00519 whole entry): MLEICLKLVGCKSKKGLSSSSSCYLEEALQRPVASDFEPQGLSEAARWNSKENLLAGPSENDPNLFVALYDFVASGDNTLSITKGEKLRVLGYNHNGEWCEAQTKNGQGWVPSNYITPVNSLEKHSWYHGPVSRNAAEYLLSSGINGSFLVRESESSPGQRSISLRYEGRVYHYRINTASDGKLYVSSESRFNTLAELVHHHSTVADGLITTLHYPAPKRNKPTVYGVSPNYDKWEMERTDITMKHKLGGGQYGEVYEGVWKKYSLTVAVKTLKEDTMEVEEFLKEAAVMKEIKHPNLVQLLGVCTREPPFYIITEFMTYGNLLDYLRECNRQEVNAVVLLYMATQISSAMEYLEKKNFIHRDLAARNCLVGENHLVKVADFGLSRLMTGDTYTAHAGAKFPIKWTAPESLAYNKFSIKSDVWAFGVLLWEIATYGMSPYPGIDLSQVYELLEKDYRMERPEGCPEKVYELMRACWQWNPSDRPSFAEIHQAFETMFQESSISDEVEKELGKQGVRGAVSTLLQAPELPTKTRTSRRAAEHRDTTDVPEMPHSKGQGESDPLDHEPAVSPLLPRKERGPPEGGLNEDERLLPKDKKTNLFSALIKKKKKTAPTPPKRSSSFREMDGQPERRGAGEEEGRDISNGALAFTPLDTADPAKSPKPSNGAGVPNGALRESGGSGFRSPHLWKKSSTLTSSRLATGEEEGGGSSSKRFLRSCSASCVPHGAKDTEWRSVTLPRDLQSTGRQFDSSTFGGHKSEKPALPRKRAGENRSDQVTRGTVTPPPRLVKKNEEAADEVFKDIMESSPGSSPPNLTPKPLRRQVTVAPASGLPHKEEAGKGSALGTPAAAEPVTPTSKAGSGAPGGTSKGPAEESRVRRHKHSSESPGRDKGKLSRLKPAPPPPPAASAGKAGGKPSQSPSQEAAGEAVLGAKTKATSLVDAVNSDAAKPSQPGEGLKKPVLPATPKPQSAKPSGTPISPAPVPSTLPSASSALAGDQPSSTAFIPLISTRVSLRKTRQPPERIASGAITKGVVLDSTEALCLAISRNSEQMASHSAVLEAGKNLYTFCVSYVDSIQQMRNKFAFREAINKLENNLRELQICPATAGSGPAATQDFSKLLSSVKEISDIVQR

Cc1cc([C@@H](C)Nc2ccccc2C(=O)O)c2nc(N3CCOCC3)cc(=O)n2c1 [AZD-6482]
% of control [1]: 100% | % of control [2]: 100%

Cc1cnc(Nc2ccc(F)cc2Cl)nc1-c1c[nH]c(C(=O)N[C@H](CO)c2cccc(Cl)c2)c1
% of inhibition [3]: 7%

CC[C@@H]1[C@H](F)C(=O)N[C@@H]1COc1nccc2cc(C(N)=O)c(OC)cc12 [ZIMLOVISERTIB]
% of inhibition [4]: 87.9% | % of inhibition [5]: -7.8% | % of inhibition [6]: 1.8%

Cn1cc(-n2cnc3c(NCc4nc5cc(Cl)c(Cl)cc5[nH]4)nc(N4CCOCC4)nc32)cn1
% of control [7]: 1.33%

COCC(=O)NC/C=C/c1ccc2ncnc(Nc3ccc(Oc4ccc(C)nc4)c(C)c3)c2c1 [CP-724714]
% of control [8]: 100%

Nc1cnc(N2CCc3cc(S(=O)(=O)Nc4c(F)cc(Cl)cc4F)cc(N4CCCC4=O)c32)nc1 [TP-020n]
% of control [9]: 94% | % of control [10]: 97%
